Experimental data published in patent US20230151065A1, “MULTI-DISULFIDE-BOND LONG-CHAIN PEPTIDE WITH NEURO[…], PHARMACEUTICAL COMPOSITION AND APPLICATION” (priority 2018, published 2023).
Where no end group is shown, it is not given here.

Legend:
[1] = system: primary cultured SD fetal rat cortical neurons after OGD damage; assay: OGD damage of cortical neurons, mitochondrial membrane potential (JC-1, flow cytometer); assay type: cell-based; conditions: OGD 2 h, 24 h reoxygenation; ABPPk2 8, 40, 200 ng/ml; obvious dose-effect relationship
Description: (§1) The suspension was filtered with a 400-mesh screen, centrifuged at 1000 rpm for 5 min, and blown to form the single cell suspension. DMEM high glucose complete medium (containing 10% fetal bovine serum) was inoculated in a culture dish or culture plate pre-coated with polylysine (PLL) to culture in 5% CO2 incubator with saturated humidity at 37° C. After the cells were cultured for 4 h to adhere to the wall, the cells were cultured with neuron culture medium (neurobasal+2% B27) for 3 d to observe the growth of neurons. The culture medium containing cytarabine (the final concentration of cytarabine was 2.5 μg/ml) was substituted with half quantity to culture for 3d to inhibit the growth of glial cells and miscellaneous cells to obtain purely cultured primary cortical nerve cells. The purity of the cortical neurons was identified by immunocytochemical staining as more than 90%. […]
(5) Effect of ABPPk2 on mitochondrial membrane potential of cortical neurons after OGD damage: cortical neurons were inoculated in a 6-well plate at 1×10^6 cells/ml; 2 ml of cell suspension was added to each well; and the cortical neurons were cultured to the 7th day. […] The mitochondrial membrane potential of the cortical neurons after OGD damage was detected by a JC-1 staining kit and a flow cytometer. […]

[2] = system: primary cultured SD fetal rat cortical neurons after OGD damage; assay: OGD damage of cortical neurons, ROS content (reactive oxygen detection kit); assay type: cell-based; conditions: OGD 2 h, 24 h reoxygenation; ABPPk2 8, 40, 200 ng/ml; obvious dose-effect relationship
Description: as §1
(6) Effect of ABPPk2 on ROS content of cortical neurons after OGD damage: cortical neurons were inoculated in a 6-well plate at 1×10^6 cells/ml; 2 ml of cell suspension was added to each well; and the cortical neurons were cultured to the 7th day. […] The effect of ABPPk2 on the ROS content of the cortical neurons after OGD damage was detected by a reactive oxygen detection kit.

[3] = system: PI3K/AKT signaling pathway in cortical neurons after OGD damage; assay: OGD damage of cortical neurons with PI3K inhibitor LY-294002, Western blot of p-AKT and Cleaved caspase-3; assay type: cell-based, SD rat
[4] = system: primary cultured hippocampal neurons; assay: Synapse formation in hippocampal neurons (SYN/PSD95 staining, PSD95 Western blot); assay type: cell-based, rat; conditions: treatment with ABPPk2 for 8 d
Description: (1) Primary culture of fetal rat hippocampal neurons: after a rat pregnant for 17 days was anesthetized, a fetal rat was taken out under sterile conditions; the brain of the fetal rat was taken out on ice; the hippocampus was carefully taken out under a dissecting microscope; and the blood vessel membranes were removed. 0.125% trypsin/EDTA was digested at 37° C. for 10 min, and the digestion was stopped by adding the DMEM complete medium containing 10% FBS. Cell debris were removed through centrifugal at 1000 rpm for 5 min; the DMEM complete medium was added to resuspend the cells; the cells were gently blown until a single cell suspension was formed; and the cells were inoculated at an appropriate density on a culture plate (dish) pre-coated with polylysine (PLL) and cultured at 37° C., 5% CO2 incubator. […]
(7) Promotion effect of ABPPk2 on synapse formation in primary cultured hippocampal neurons. […] The field of view was randomly selected and photographed under the laser confocal microscope, and the number of synaptic cristulas on every 100 μm neurites was counted. The effect of ABPPk2 on the expression of PSD95 was analyzed by Western blot. The steps were as follows: the total protein was extracted and the total protein concentration was determined by Bradford method. […]

[5] = after OGD and LY-294002 treatment, ABPPk2 high-dose group
[6] = after OGD damage, vs OGD group, ABPPk2 at high dose, LY-294002 30 min

Substance: Cys-Leu-Glu-Ser-Gly-Thr-Ser-Cys-Ile-Pro-Gly-Ala-Gln-His-Asn-Cys-Cys-Ser-Gly-Val-Cys-Val-Pro-Ile-Val-Thr-Ile-Phe-Tyr-Gly-Val-Cys-Tyr (CLESGTSCIPGAQHNCCSGVCVPIVTIFYGVCY; disulfide (positions not given here); not fully specified (bridges); also: three disulfide bonds, pairing not given here) [ABPPk2, 33 amino acid polypeptide isolated from the extract of Achyranthes bidentata Blume, three pairs of disulfide bonds]
- mitochondrial membrane potential [1]: can alleviate the decline in mitochondrial membrane potential
- ROS content [2]: can reduce the ROS content
- expression of Cleaved caspase-3 [3, 5]: significantly down-regulated
- expression of p-AKT [3, 5]: significantly up-regulated
- expression of Cleaved caspase-3 [3, 6]: significantly down-regulated
- expression of p-AKT [3, 6]: significantly up-regulated
- number of the formed synapses [4]: the number of the formed synapses can be significantly increased
- expression of PSD95 protein ([4]; Western blot): up-regulated
